# Values of other authors in patent US6774247B2, “Aqueous solution of ascorbic acid and method for producing same” (AquaNova German Solubilisate Technology (AGT) GmbH, priority 2001, dated 2004).
# Conditions: aqueous ascorbic acid solution, after 30 days
compound,measurement,value
O=C1O[C@H]([C@@H](O)CO)C(O)=C1O [ascorbic acid],added ascorbic acid still present,about 70%
